Test results: BigSolDB 2.1

COc1cccc(C(=O)O)c1OC
solubility (mole fraction)
Conditions	278.15 K	283.15 K	288.15 K	293.15 K	298.15 K	303.15 K	308.15 K	313.15 K	318.15 K	323.15 K
in 1,4-dioxane	–	–	0.0585	0.069	0.0805	0.0934	0.11	0.127	0.148	–
in 2-ethoxyethanol	0.0418	0.0485	0.0552	0.0644	0.0733	0.084	0.0974	0.109	0.128	0.146
in acetonitrile	0.0108	0.0133	0.0167	0.0204	0.0254	0.0309	0.0385	0.0474	0.059	0.0734
in ethanol	0.0131	0.0165	0.0202	0.0252	0.0304	0.0384	0.0466	0.0592	0.0714	0.0884
in ethyl acetate	0.0133	0.0159	0.0189	0.023	0.0271	0.0332	0.0391	0.0464	0.057	0.0685
in ethylene glycol	0.0468	0.0529	0.0616	0.0708	0.0801	0.092	0.104	0.12	0.137	0.154
in isopropanol	0.00832	0.0106	0.0138	0.0175	0.0233	0.0291	0.0384	0.0482	0.0632	0.0791
in isopropyl acetate	0.00953	0.0111	0.0137	0.0162	0.0198	0.0237	0.029	0.0339	0.0425	0.0499
in methanol	0.0151	0.0192	0.0229	0.0288	0.0348	0.0446	0.0535	0.0682	0.0838	0.101
in methyl acetate	0.0166	0.0197	0.0236	0.0282	0.034	0.041	0.0494	0.0589	0.0719	0.0862
in n-butanol	0.00922	0.0116	0.0144	0.0183	0.0219	0.0284	0.0362	0.0449	0.0562	0.0716
in n-butyl acetate	0.00923	0.0111	0.0134	0.016	0.0195	0.0234	0.0286	0.0342	0.0428	0.0506
in n-propanol	0.00925	0.0122	0.0151	0.0197	0.0243	0.0316	0.0386	0.05	0.0618	0.0793
in n-propyl acetate	0.0106	0.0133	0.0154	0.0193	0.0224	0.0279	0.0326	0.0403	0.0468	0.0583
in water	4.79e-05	6.1e-05	7.77e-05	0.0001	0.000125	0.000162	0.000202	0.00026	0.000323	0.000399
